The values that follow come from ChEMBL document CHEMBL3045073, “Synthesis of -amino carbonyl derivatives of coumarin and benzofuran and evaluation of their biological activity” (Med Chem Res, 2013).

In brackets after ≈: the same amount, converted by molar mass. Activity calls are given as the source filed them.

The test system of assay [1] is Pseudomonas aeruginosa. Description: Antibacterial activity against Pseudomonas aeruginosa ATCC 27853 assessed as growth inhibition after 24 hr by serial broth dilution method. It is filed as functional. On the technique in general: In broth dilution the organism is exposed to a series of concentrations in liquid medium.
Assay [2] concerns Radical scavenging activity. Description: Antioxidant activity assessed as DPPH free radical scavenging activity at 100 ug/mL after 10 min UV-Vis spectrophotometric analysis relative to control. It is filed as functional. Background: DPPH is a stable violet radical that fades when it is reduced.
Assay [3] deals with Chrysosporium keratinophilum. Description: Antifungal activity against Chrysosporium keratinophilum assessed as growth inhibition at 50 mg/mL after 72 hr by agar well diffusion method. Type of assay: functional. Particulars: for zone of inhibition at 50000 µg/mL: read-out: IZ.
Assay [4] concerns Aspergillus flavus. Description: Antifungal activity against Aspergillus flavus assessed as growth inhibition at 50 mg/mL after 72 hr by agar well diffusion method. Particulars: for zone of inhibition at 50000 µg/mL: read-out: IZ. It is filed as functional. In general terms: A growth-free zone around the sample is the usual read-out of agar diffusion tests.
The test system of assay [5] is Pseudomonas aeruginosa. Description: Antibacterial activity against Pseudomonas aeruginosa ATCC 27853 assessed as growth inhibition at 50 mg/mL after 24 hr by agar well diffusion method. Type of assay: functional. Particulars: for zone of inhibition at 50000 µg/mL: ATCC 27853, 24 h, read-out: IZ.
Assay [6] deals with Aspergillus flavus. Description: Antifungal activity against Aspergillus flavus assessed as growth inhibition after 72 hr by serial broth dilution method. It is filed as functional.
The test system of assay [7] is Chrysosporium keratinophilum. Description: Antifungal activity against Chrysosporium keratinophilum assessed as growth inhibition after 72 hr by serial broth dilution method. It is filed as functional.
Assay [8] concerns Candida albicans. Description: Antifungal activity against Candida albicans MTCC227 assessed as growth inhibition after 72 hr by serial broth dilution method.
Assay [9] deals with Escherichia coli. Description: Antibacterial activity against Escherichia coli ATCC 25922 assessed as growth inhibition after 24 hr by serial broth dilution method.
The test system of assay [10] is Candida albicans. Description: Antifungal activity against Candida albicans MTCC227 assessed as growth inhibition at 50 mg/mL after 72 hr by agar well diffusion method. As to conditions: for zone of inhibition at 50000 µg/mL: MTCC227, 72 h, read-out: IZ.
Assay [11] relates to Staphylococcus aureus. Description: Antibacterial activity against Staphylococcus aureus ATCC 25923 assessed as growth inhibition after 24 hr by serial broth dilution method.
Assay [12] relates to Escherichia coli. Description: Antibacterial activity against Escherichia coli ATCC 25922 assessed as growth inhibition at 50 mg/mL after 24 hr by agar well diffusion method. Particulars: for zone of inhibition at 50000 µg/mL: ATCC 25922, 24 h, read-out: IZ.
Assay [13] deals with Staphylococcus aureus. Description: Antibacterial activity against Staphylococcus aureus ATCC 25923 assessed as growth inhibition at 50 mg/mL after 24 hr by agar well diffusion method. As to conditions: for zone of inhibition at 50000 µg/mL: ATCC 25923, 24 h, read-out: IZ.

As usually defined, the MIC is the smallest concentration in the dilution series that meets the test's criterion for growth inhibition. Take `Cc1ccc(C(CC(=O)c2cc3ccccc3o2)Nc2ccc(C(=O)O)cc2)cc1` (centres undefined): the MIC entry in assay [1], in assay [6], in assay [7], in [8], in [9] and in assay [11] was “inactive” throughout. Moreover, in assay [2], the Activity worked out at 54.1%. The “growth inhibition (GI)” value in assay [3], in assay [4], in assay [5], in assay [10], in assay [12] and in [13] was “inactive” in each case.

As to `O=C(O)c1ccc(NC(CC(=O)c2cc3ccccc3o2)c2ccc([N+](=O)[O-])cc2)cc1` (centres undefined), the MIC in assay [1] (ATCC 27853, 24 h) turned out to be 500 µg/mL (≈ 1160 µM); in [6], 550 µg/mL (≈ 1280 µM); in assay [7], 500 µg/mL (≈ 1160 µM); in assay [8] (MTCC227, 72 h), 450 µg/mL (≈ 1050 µM); in assay [9] (ATCC 25922, 24 h), 500 µg/mL (≈ 1160 µM); in assay [11] (ATCC 25923, 24 h), 400 µg/mL (≈ 929 µM). In assay [2], the Activity is 29.1%. In addition, the zone of inhibition at 50000 µg/mL came out at 2 mm in [3]; 3 mm in assay [4]; 3 mm in assay [5]; 2 mm in assay [10]; 3 mm in assay [12]; 3 mm in assay [13].

In the case of `O=C(O)c1ccc(NC(CC(=O)c2cc3ccccc3oc2=O)c2ccc(F)cc2)cc1` (centres undefined), the minimal inhibitory concentration (MIC) is 100 µg/mL (≈ 232 µM) in [1] (ATCC 27853, 24 h); 230 µg/mL (≈ 533 µM) in assay [6]; 200 µg/mL (≈ 464 µM) in assay [7]; 100 µg/mL (≈ 232 µM) in assay [8] (MTCC227, 72 h); 100 µg/mL (≈ 232 µM) in assay [9] (ATCC 25922, 24 h); 120 µg/mL (≈ 278 µM) in [11] (ATCC 25923, 24 h). For the same compound, the Activity in assay [2] is 35.2%. For the same compound, the zone of inhibition at 50000 µg/mL in [3] stood at 12 mm; in [4] it was 10 mm; in assay [5] it was 12 mm; in assay [10], 18 mm; in assay [12], 12 mm; in assay [13] it was 10 mm.

As to `Cc1cc(C(C)(C)C)c(O)c(C(C)(C)C)c1`, the Activity in [2] was found to be 90%.

`O=C(O)c1ccc(NC(CC(=O)c2cc3ccccc3oc2=O)c2ccc(Cl)cc2)cc1` (centres undefined): the minimal inhibitory concentration (MIC) is 40 µg/mL (≈ 89.3 µM) in assay [1] (ATCC 27853, 24 h); 40 µg/mL (≈ 89.3 µM) in assay [6]; 40 µg/mL (≈ 89.3 µM) in [7]; 50 µg/mL (≈ 112 µM) in assay [8] (MTCC227, 72 h); 50 µg/mL (≈ 112 µM) in assay [9] (ATCC 25922, 24 h); 50 µg/mL (≈ 112 µM) in [11] (ATCC 25923, 24 h). Also, the Activity in assay [2] came to 34.7%. For the same compound, the zone of inhibition at 50000 µg/mL in assay [3] was determined as 15 mm; in assay [4] it was 11 mm; in [5], 13 mm; in [10], 19 mm; in assay [12], 13 mm; in assay [13], 11 mm.

For the compound `COc1ccc(C(CC(=O)c2cc3ccccc3o2)Nc2ccccc2)cc1` (centres undefined), the MIC result in assay [1], in assay [6], in [7], in assay [8], in assay [9] and in assay [11] was “inactive” each time. Also, the Activity in assay [2] came out at 27.3%. Besides, the “growth inhibition (GI)” value in assay [3], in [4], in assay [5], in [10], in assay [12] and in assay [13] was “inactive” throughout.

Consider `CN(C)c1ccc(C(CC(=O)c2cc3ccccc3oc2=O)Nc2ccc(C(=O)O)cc2)cc1` (centres undefined), for which the MIC in assay [1] (ATCC 27853, 24 h) was determined as 400 µg/mL (≈ 876 µM); in assay [6] it was 450 µg/mL (≈ 986 µM); in [8] (MTCC227, 72 h) it was 500 µg/mL (≈ 1100 µM); in assay [9] (ATCC 25922, 24 h) it was 500 µg/mL (≈ 1100 µM); in assay [11] (ATCC 25923, 24 h), 550 µg/mL (≈ 1200 µM). Further, in [2], the Activity came to 12.3%. In addition, in assay [3], the “growth inhibition (GI)” value is “inactive”. Besides, the zone of inhibition at 50000 µg/mL stood at 1 mm in assay [4]; 3 mm in assay [5]; 1 mm in assay [10]; 3 mm in assay [12]; 2 mm in [13]. In addition, in assay [7], the MIC entry is “inactive”.

For `O=C(CC(Nc1ccccc1)c1ccccc1)c1cc2ccccc2o1` (centres undefined), the MIC came to 500 µg/mL (≈ 1460 µM) in assay [1] (ATCC 27853, 24 h); 500 µg/mL (≈ 1460 µM) in assay [6]; 500 µg/mL (≈ 1460 µM) in [7]; 500 µg/mL (≈ 1460 µM) in assay [8] (MTCC227, 72 h); 500 µg/mL (≈ 1460 µM) in assay [9] (ATCC 25922, 24 h); 500 µg/mL (≈ 1460 µM) in [11] (ATCC 25923, 24 h). The Activity in assay [2] is 28.7%. Moreover, the zone of inhibition at 50000 µg/mL was determined as 1 mm in assay [3]; 2 mm in assay [4]; 1 mm in [5]; 2 mm in [10]; 1 mm in assay [12]; 1 mm in assay [13].

As for `O=C(O)c1ccc(NC(CC(=O)c2cc3ccccc3o2)c2ccc(Cl)cc2)cc1` (centres undefined), the MIC in assay [1] (ATCC 27853, 24 h) turned out to be 140 µg/mL (≈ 333 µM); in assay [6] it was 40 µg/mL (≈ 95.3 µM); in assay [7] it was 40 µg/mL (≈ 95.3 µM); in assay [8] (MTCC227, 72 h), 50 µg/mL (≈ 119 µM); in [9] (ATCC 25922, 24 h) it was 120 µg/mL (≈ 286 µM); in assay [11] (ATCC 25923, 24 h) it was 130 µg/mL (≈ 310 µM). Moreover, in assay [2], the Activity is 31.2%. The zone of inhibition at 50000 µg/mL in [3] stood at 13 mm; in assay [4] it was 7 mm; in assay [5] it was 7 mm; in assay [10] it was 17 mm; in assay [12], 9 mm; in [13], 8 mm.

Regarding `O=C(CC(Nc1ccccc1)c1ccccc1)c1cc2ccccc2oc1=O` (centres undefined), the MIC in assay [1] (ATCC 27853, 24 h) turned out to be 350 µg/mL (≈ 947 µM); in assay [6] it was 450 µg/mL (≈ 1220 µM); in [7], 550 µg/mL (≈ 1490 µM); in assay [8] (MTCC227, 72 h) it was 300 µg/mL (≈ 812 µM); in [9] (ATCC 25922, 24 h), 500 µg/mL (≈ 1350 µM); in assay [11] (ATCC 25923, 24 h), 500 µg/mL (≈ 1350 µM). In addition, the Activity in assay [2] was 25.3%. For the same compound, the zone of inhibition at 50000 µg/mL in [3] was 3 mm; in [4], 4 mm; in assay [5] it was 1 mm; in [10], 7 mm; in [12], 4 mm; in assay [13], 5 mm.

In the case of `O=C(O)c1ccc(NC(CC(=O)c2cc3ccccc3oc2=O)c2ccc([N+](=O)[O-])cc2)cc1` (centres undefined), the minimum inhibitory concentration (MIC) stood at 430 µg/mL (≈ 938 µM) in [1] (ATCC 27853, 24 h); 250 µg/mL (≈ 545 µM) in assay [6]; 350 µg/mL (≈ 763 µM) in assay [7]; 500 µg/mL (≈ 1090 µM) in assay [8] (MTCC227, 72 h); 500 µg/mL (≈ 1090 µM) in [9] (ATCC 25922, 24 h); 500 µg/mL (≈ 1090 µM) in assay [11] (ATCC 25923, 24 h). In assay [2], the Activity is 15.3%. Besides, the zone of inhibition at 50000 µg/mL was 6 mm in [3]; 5 mm in assay [4]; 6 mm in [5]; 4 mm in assay [10]; 3 mm in assay [12]; 3 mm in assay [13].

`COc1ccc(C(CC(=O)c2cc3ccccc3o2)Nc2ccc(C(=O)O)cc2)cc1` (centres undefined): the MIC in assay [1] (ATCC 27853, 24 h) stood at 500 µg/mL (≈ 1200 µM); in [6], 500 µg/mL (≈ 1200 µM); in assay [7] it was 500 µg/mL (≈ 1200 µM); in [9] (ATCC 25922, 24 h), 500 µg/mL (≈ 1200 µM); in assay [11] (ATCC 25923, 24 h), 500 µg/mL (≈ 1200 µM). The Activity in assay [2] turned out to be 14.2%. Besides, the zone of inhibition at 50000 µg/mL in assay [3] worked out at 2 mm; in assay [4], 1 mm; in assay [5], 1 mm; in assay [12], 3 mm; in [13], 1 mm. In addition, in assay [8], the MIC entry was “inactive”. Also, the “growth inhibition (GI)” value in [10] was “inactive”.
